In patent publication US8609695B2, “Methods of treating and/or suppressing insulin resistance” (Endorecherche, Inc., priority 1999, dated 2013):

Columns and labels:
[1] = system: intact (INT) and ovariectomized (OVX) female rats; experiment: EM-652.HCl and DHEA, energy balance and lipid-lipoprotein metabolism, high sucrose-high fat diet (Example 9); type: in vivo; settings: 20 days, EM-652.HCl 0.5 mg/rat per os, DHEA 20 mg/rat topical
Description: The objective of this study was to determine the effects of EM-652.HCl and DHEA, administered alone or in combination, on energy balance and lipid-lipoprotein metabolism in rats. The effect of treatments was evaluated on many parameters following a 20-day treatment with EM-652.HCl (0.5 mg/rat, ˜2.5 mg/kg, per os) and DHEA (20 mg/rat, ˜100 mg/kg, topical application), administered alone or in combination, to intact (INT) and ovariectomized (OVX) female rats receiving a high sucrose-high fat diet. For comparison, one intact and ovariectomized control group received the enriched diet while other control animals (intact and OVX) received the commercial rodent diet.
d) Diet: • During the acclimation period, rats received a commercial rodent diet (Purina, #5075) and tap water ad libitum. During study period, groups 1 & 2 continued to receive the commercial diet while groups 3 to 10 received a high sucrose-high fat diet composed of (g/100 g): Sucrose, 45; Corn oil, 10; Lard, 10; Casein, 22.5; dl-Methionine, 0.3; Vitamin mix, 1.2; AIN-76 mineral mix, 5.5; Fiber, 5.5.44
80 rats were assigned to 10 groups of 8 rats for conduct of the study outlined below.
On day 0 of the study, rats from the appropriate groups were ovariectomized (by bilateral flank incision) under Isoflurane anesthesia. Intact rats were sham-operated.
Administration of the tested compounds or vehicle started the day following the ovariectomy (Day 1). […] Rats from control groups received the vehicle alone (per os and topically). Rats were killed on day 21 of the study approximately 24 hours after the last dosing.
Rats were weighed on day 0 (surgery), every 2 days during the study period and on the day of necropsy. Body weights were recorded with a precision of 1.0 g.
On day 21 of the study, overnight fasted rats were killed approximately 24 hours after the last dosing. They were anesthesized with ketamine-xylazine and blood drawn by cardiac punction.
Blood lipids (Total cholesterol and Triglycerides) were measured on frozen serum samples using the Boehringer Mannheim Diagnostic Hitachi 911 Analyzer (Boehringer Mannheim Diagnostic Laboratory Systems). Circulating hormones and substrates (Insulin, leptin, glucose) were measured on serum samples as follow: • Insulin: Linco RIA kit • Glucose: Beckmann automatic glucose analyser • Leptin: Linco RIA kit Organs and Tissues Collected
The following tissues were collected and weighed for all animals: • Muscle (soleus and VLM), fat (retroperitoneal and inguinal), and brown adipose tissue.
A piece of liver was frozen for later determination of TG and CHOL content (Folchis method) while the other tissues were processed for determination of LPL activity.

intact female rats = experiment: 6-month treatment, fat accumulation in intact female rats receiving or not LHRH-A (Example 5); type: in vivo, Rattus norvegicus; parameters: FAT (%): dose or concentration left out as unconfirmed; settings: 6 months; for FAT (%): DEXA, once daily; for increment of the percentage of body fat under LHRH-A: concomitant with LHRH-A
Description: The objective of this study is to determine the effect on fat of treatment with EM-652.HCl and dehydroepiandrosterone (DHEA) in intact female rats receiving or not a luteinizing hormone releasing hormone agonist (LHRH-A, LHRH ethylamide diacetate). For this purpose, intact female rats, treated or not with LHRH-A (2 μg/rat), received daily administration of EM-652.HCl (2.5 mg/kg) and DHEA (100 mg/kg), alone or in combination, for 6 months. EM-652.HCl was administered orally, DHEA was applied topically while LHRH-A was injected subcutaneously. All treatments were administered once daily.
One hundred twenty rats were separated into 8 groups of 15 animals for conduct of the study outlined below:
The LHRH-A is available in solution at a concentration of 1.0 mg/ml. We diluted this concentrated solution (in order to obtain a final concentration of 0.004 mg/ml) by using the following vehicle: 0.3% Sodium Chloride and 0.25% Sodium Phosphate monobasic, monohydrate in water. The sodium hydroxide (aqueous) was used to adjust the pH between 5.6-6.2.
Dosing suspensions/solutions were prepared every two weeks according to the most recent body weight (group mean) except for the LHRH-A solution. For EM-652.HCl administered orally, the vehicle (0.4% methylcellulose) was added to the tested compound, previously weighed into a glass bottle, at least 48 hours prior to the first dosing day. To ensure the homogeneity of dosing suspension, it was stirred at least 48 hours at 2 to 8 C. Dosing suspension was kept at 2 to 8 C. For DHEA solution applied topically, the ethanol was added to DHEA and the mix were agitated until dissolution of DHEA. Then, the polypropylene glycol was added and the solution agitated until homogeneity. Dosing solution was kept at 2 to 8 C. For LHRH-A solution injected subcutaneously, a dilution of the concentrated solution using the appropriate vehicle was prepared every month. Dosing solution was kept at 2 to 8 C.
The administration of tested compounds or vehicle was given from on Study Day 1 of the protocol. The tested compounds were given as suspension in 0.4% methylcellulose by oral gavage (0.5 ml/gavage/rat) once daily or were applied topically in 50% ethanol-50% propylene glycol (0.5 ml/application/rat) once daily. Rats from groups 5 to 8 received also the LHRH-A once daily by subcutaneous injection (0.5 ml/injection/rat). Rats not receiving a tested compound orally and/or topically received the appropriate vehicle alone.
Body composition was measured on whole skeleton of animal under Isoflurane-induced anesthesia using dual energy x-ray absorptiometry (DEXA; QDR 4500A, Hologic) during the acclimation period and after 6 months of treatment.

Compound	Brown adipose tissue Lipoprotein lipase activity ([1]; OVX rats)	Brown adipose tissue weight ([1]; OVX rats)	Plasma glucose ([1]; OVX rats)	Plasma insulin ([1]; OVX rats)	Plasma leptin ([1]; OVX rats)	Plasma total cholesterol ([1]; OVX rats)	Plasma triglycerides ([1]; OVX rats)	Soleus muscle Lipoprotein lipase activity ([1]; OVX rats)	Soleus muscle weight ([1]; OVX rats)	Total weight ([1]; OVX rats)	VastusLateralis muscle Lipoprotein lipase activity ([1]; OVX rats)	VastusLateralis muscle weight ([1]; OVX rats)	White adipose tissue inguinal Lipoprotein lipase activity ([1]; OVX rats)	White adipose tissue inguinal weight ([1]; OVX rats)	White adipose tissue retroperitoneal Lipoprotein lipase activity ([1]; OVX rats)	White adipose tissue retroperitoneal weight ([1]; OVX rats)	liver total cholesterol ([1]; OVX rats)	liver triglycerides ([1]; OVX rats)	Brown adipose tissue Lipoprotein lipase activity ([1]; sham rats)	Brown adipose tissue weight ([1]; sham rats)	further results
C[C@]12CC[C@H](O)CC1=CC[C@@H]1[C@@H]2CC[C@]2(C)C(=O)CC[C@@H]12 [DHEA, dehydroepiandrosterone]	1069 ± 96 μU/g protein	0.342 ± 0.049 g	8.64 ± 0.24 mmol/L	0.052 ± 0.009 nmol/L	2.757 ± 0.631 ng/mL	1.57 ± 0.12 mmol/L	0.62 ± 0.08 mmol/L	45.9 ± 4.7 μU/g protein	0.103 ± 0.005 g	274 ± 9 g	13.1 ± 5.4 μU/g protein	0.920 ± 0.049 g	583 ± 134 μU/g protein	0.885 ± 0.156 g	1905 ± 112 μU/g protein	1.699 ± 0.151 g	0.079 ± 0.005 mmol/L	0.165 ± 0.047 mmol/L	982 ± 72 μU/g protein	0.373 ± 0.036 g	Plasma glucose ([1]; sham rats): 8.05 ± 0.51 mmol/L; Plasma insulin ([1]; sham rats): 0.048 ± 0.012 nmol/L; Plasma leptin ([1]; sham rats): 1.977 ± 0.255 ng/mL; Plasma total cholesterol ([1]; sham rats): 1.59 ± 0.17 mmol/L; Plasma triglycerides ([1]; sham rats): 0.61 ± 0.11 mmol/L; Soleus muscle Lipoprotein lipase activity ([1]; sham rats): 53.6 ± 7.5 μU/g protein; Soleus muscle weight ([1]; sham rats): 0.105 ± 0.004 g; Total weight ([1]; sham rats): 252 ± 5 g; VastusLateralis muscle Lipoprotein lipase activity ([1]; sham rats): 11.5 ± 2.0 μU/g protein; VastusLateralis muscle weight ([1]; sham rats): 0.893 ± 0.043 g; White adipose tissue inguinal Lipoprotein lipase activity ([1]; sham rats): 194 ± 45 μU/g protein; White adipose tissue inguinal weight ([1]; sham rats): 0.659 ± 0.075 g; White adipose tissue retroperitoneal Lipoprotein lipase activity ([1]; sham rats): 1177 ± 188 μU/g protein; White adipose tissue retroperitoneal weight ([1]; sham rats): 1.067 ± 0.149 g; liver total cholesterol ([1]; sham rats): 0.068 ± 0.003 mmol/L; liver triglycerides ([1]; sham rats): 0.038 ± 0.007 mmol/L; FAT (%) (intact female rats): 20.2 ± 2.3%; increment of the percentage of body fat under LHRH-A (intact female rats): 19%
CC1=C(c2ccc(O)cc2)[C@H](c2ccc(OCCN3CCCCC3)cc2)Oc2cc(O)ccc21.Cl [EM-652.HCl, (S)-(+)-7-hydroxy-3-(4′-hydroxyphenyl)-4-methyl-2-(4″-(2′″-piperidino-ethoxy)phenyl)-2H-1-benxopyran hydrochloride]	678 ± 65 μU/g protein	0.408 ± 0.025 g	9.06 ± 0.30 mmol/L	0.089 ± 0.013 nmol/L	1.989 ± 0.326 ng/mL	1.15 ± 0.11 mmol/L	0.97 ± 0.16 mmol/L	39.1 ± 5.0 μU/g protein	0.104 ± 0.004 g	268 ± 5 g	10.8 ± 3.2 μU/g protein	0.944 ± 0.030 g	310 ± 63 μU/g protein	0.709 ± 0.085 g	1612 ± 186 μU/g protein	1.370 ± 0.211 g	0.092 ± 0.006 mmol/L	0.348 ± 0.078 mmol/L	1196 ± 83 μU/g protein	0.306 ± 0.044 g	Plasma glucose ([1]; sham rats): 9.03 ± 0.49 mmol/L; Plasma insulin ([1]; sham rats): 0.057 ± 0.004 nmol/L; Plasma leptin ([1]; sham rats): 2.019 ± 0.402 ng/mL; Plasma total cholesterol ([1]; sham rats): 1.15 ± 0.06 mmol/L; Plasma triglycerides ([1]; sham rats): 0.60 ± 0.12 mmol/L; Soleus muscle Lipoprotein lipase activity ([1]; sham rats): 53.9 ± 3.3 μU/g protein; Soleus muscle weight ([1]; sham rats): 0.098 ± 0.005 g; Total weight ([1]; sham rats): 238 ± 5 g; VastusLateralis muscle Lipoprotein lipase activity ([1]; sham rats): 16.2 ± 3.1 μU/g protein; VastusLateralis muscle weight ([1]; sham rats): 0.965 ± 0.034 g; White adipose tissue inguinal Lipoprotein lipase activity ([1]; sham rats): 160 ± 23 μU/g protein; White adipose tissue inguinal weight ([1]; sham rats): 0.435 ± 0.043 g; White adipose tissue retroperitoneal Lipoprotein lipase activity ([1]; sham rats): 1277 ± 56 μU/g protein; White adipose tissue retroperitoneal weight ([1]; sham rats): 1.058 ± 0.162 g; liver total cholesterol ([1]; sham rats): 0.096 ± 0.011 mmol/L; liver triglycerides ([1]; sham rats): 0.360 ± 0.102 mmol/L; FAT (%) (intact female rats): 19.1 ± 1.4%; increment of the percentage of body fat under LHRH-A (intact female rats): 35%
